Test results taken from ChEMBL document CHEMBL5331138, “Potent, Selective, and Membrane Permeable 2-Amino-4-Substituted Pyridine-Based Neuronal Nitric Oxide Synthase Inhibitors” (J Med Chem, 2023).

What was measured:
Nitric oxide synthase 3 = biological target: T1, Nitric oxide synthase 3 (Homo sapiens, UniProt P29474); experiment: Inhibition of human eNOS expressed in Escherichia coli using human oxyhemoglobin by hemoglobin (Hb) NO capture assay
T1 sequence (P29474 whole entry): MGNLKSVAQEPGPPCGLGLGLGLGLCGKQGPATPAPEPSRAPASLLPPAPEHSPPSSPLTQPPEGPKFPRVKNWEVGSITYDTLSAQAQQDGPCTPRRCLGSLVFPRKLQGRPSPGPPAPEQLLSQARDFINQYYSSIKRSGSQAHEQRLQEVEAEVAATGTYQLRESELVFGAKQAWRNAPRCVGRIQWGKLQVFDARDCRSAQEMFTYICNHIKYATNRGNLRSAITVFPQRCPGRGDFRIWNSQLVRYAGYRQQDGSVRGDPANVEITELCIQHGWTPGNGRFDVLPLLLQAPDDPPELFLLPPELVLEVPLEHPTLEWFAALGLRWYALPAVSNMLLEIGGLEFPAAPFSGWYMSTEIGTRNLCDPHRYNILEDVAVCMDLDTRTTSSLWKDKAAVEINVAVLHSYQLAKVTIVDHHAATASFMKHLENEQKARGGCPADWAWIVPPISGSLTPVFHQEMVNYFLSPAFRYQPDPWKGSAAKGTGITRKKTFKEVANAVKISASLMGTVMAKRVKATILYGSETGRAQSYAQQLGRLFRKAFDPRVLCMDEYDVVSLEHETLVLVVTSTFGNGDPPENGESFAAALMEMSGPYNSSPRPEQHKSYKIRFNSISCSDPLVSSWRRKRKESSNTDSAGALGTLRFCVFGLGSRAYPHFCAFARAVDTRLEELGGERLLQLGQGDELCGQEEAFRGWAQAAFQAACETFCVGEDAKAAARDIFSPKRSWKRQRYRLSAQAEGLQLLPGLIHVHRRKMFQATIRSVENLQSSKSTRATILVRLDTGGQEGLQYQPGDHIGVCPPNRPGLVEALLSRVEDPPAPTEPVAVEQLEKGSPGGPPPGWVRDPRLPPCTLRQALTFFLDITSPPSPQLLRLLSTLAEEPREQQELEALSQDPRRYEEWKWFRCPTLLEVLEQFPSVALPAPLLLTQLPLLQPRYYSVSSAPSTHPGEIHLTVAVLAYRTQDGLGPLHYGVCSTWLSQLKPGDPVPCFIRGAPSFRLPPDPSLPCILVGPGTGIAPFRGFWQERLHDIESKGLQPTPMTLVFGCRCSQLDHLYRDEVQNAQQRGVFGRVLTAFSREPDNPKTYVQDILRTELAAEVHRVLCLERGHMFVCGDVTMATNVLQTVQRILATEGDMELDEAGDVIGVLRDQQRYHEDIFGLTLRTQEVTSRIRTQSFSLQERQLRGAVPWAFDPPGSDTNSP

[1] = biological target: Nitric oxide synthase, inducible (Homo sapiens, UniProt P35228)
Chain of Nitric oxide synthase, inducible (P35228 whole entry): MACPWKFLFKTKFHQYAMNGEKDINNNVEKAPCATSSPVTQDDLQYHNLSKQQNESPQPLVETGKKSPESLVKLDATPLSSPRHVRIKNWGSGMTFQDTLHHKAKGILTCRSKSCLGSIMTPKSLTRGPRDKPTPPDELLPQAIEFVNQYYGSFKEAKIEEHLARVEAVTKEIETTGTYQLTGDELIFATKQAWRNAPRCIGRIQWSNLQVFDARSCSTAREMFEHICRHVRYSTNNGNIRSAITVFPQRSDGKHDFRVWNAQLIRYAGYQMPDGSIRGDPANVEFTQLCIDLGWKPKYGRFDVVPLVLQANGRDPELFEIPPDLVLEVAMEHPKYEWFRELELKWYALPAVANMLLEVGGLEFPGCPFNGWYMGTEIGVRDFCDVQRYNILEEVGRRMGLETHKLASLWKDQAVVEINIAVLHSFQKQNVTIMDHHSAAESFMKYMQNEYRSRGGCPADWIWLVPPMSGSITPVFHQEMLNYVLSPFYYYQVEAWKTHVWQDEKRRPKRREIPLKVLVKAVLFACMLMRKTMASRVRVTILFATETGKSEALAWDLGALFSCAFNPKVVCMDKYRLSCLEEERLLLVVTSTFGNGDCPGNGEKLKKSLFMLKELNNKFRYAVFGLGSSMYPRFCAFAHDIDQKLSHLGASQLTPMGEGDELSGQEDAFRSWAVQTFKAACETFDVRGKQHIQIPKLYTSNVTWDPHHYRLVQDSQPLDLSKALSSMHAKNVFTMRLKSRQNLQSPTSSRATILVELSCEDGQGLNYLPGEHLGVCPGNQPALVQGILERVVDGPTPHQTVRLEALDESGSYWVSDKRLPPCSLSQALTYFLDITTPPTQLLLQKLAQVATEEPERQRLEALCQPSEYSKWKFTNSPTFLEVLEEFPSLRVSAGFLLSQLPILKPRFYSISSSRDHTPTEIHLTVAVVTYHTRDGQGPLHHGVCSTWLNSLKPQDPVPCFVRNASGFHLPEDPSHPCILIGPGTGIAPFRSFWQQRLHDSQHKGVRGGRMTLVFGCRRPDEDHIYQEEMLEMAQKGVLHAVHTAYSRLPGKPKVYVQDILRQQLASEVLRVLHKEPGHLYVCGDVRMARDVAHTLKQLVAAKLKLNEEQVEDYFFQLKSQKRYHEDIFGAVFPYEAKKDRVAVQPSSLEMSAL
Description: Inhibition of human iNOS expressed in Escherichia coli using human oxyhemoglobin by hemoglobin (Hb) NO capture assay

Nitric oxide synthase 1 [2] = biological target: Nitric oxide synthase 1 (Rattus norvegicus, UniProt P29476)
Chain of Nitric oxide synthase 1 (Rattus norvegicus, UniProt P29476) (P29476 whole entry): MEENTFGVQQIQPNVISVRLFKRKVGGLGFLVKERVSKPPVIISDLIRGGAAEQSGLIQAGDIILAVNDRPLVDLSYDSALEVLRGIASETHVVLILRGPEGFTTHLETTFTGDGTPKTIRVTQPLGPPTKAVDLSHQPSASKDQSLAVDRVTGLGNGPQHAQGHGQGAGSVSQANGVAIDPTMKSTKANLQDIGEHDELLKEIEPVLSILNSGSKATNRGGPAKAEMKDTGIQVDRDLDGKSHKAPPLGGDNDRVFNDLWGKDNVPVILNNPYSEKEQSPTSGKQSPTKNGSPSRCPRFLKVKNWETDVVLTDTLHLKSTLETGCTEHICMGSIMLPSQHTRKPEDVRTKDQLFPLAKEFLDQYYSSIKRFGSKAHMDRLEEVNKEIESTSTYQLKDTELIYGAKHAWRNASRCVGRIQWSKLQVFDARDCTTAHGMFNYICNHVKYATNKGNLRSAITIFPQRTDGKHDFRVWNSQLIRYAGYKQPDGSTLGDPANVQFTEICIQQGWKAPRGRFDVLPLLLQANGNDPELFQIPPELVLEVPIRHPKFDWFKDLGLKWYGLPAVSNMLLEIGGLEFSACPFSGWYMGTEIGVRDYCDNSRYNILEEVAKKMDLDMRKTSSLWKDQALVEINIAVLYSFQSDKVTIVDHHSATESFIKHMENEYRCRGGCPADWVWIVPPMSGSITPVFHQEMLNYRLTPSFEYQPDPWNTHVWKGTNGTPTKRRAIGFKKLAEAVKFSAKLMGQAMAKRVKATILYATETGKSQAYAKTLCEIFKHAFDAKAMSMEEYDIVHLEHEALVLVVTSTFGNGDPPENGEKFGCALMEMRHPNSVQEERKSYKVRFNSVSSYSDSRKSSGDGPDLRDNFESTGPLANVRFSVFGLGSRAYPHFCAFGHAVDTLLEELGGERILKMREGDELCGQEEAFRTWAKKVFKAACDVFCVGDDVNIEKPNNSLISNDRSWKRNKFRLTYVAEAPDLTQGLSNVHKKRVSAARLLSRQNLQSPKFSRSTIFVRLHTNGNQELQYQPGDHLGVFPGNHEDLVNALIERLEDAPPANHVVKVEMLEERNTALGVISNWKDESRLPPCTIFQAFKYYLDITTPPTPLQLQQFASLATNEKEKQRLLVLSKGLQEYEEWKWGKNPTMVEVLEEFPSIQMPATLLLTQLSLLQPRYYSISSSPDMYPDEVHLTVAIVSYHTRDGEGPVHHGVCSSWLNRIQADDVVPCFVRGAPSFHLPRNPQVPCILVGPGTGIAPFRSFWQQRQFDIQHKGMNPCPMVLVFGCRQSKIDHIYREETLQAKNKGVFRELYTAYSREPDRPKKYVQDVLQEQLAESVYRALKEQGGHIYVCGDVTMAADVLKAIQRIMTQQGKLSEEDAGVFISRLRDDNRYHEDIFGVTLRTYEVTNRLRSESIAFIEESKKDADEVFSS
Description: Inhibition of rat nNOS expressed in Escherichia coli using human oxyhemoglobin by hemoglobin (Hb) NO capture assay

Nitric oxide synthase 1 [3] = biological target: Nitric oxide synthase 1 (Homo sapiens, UniProt P29475)
Chain of Nitric oxide synthase 1 (Homo sapiens, UniProt P29475) (P29475 whole entry): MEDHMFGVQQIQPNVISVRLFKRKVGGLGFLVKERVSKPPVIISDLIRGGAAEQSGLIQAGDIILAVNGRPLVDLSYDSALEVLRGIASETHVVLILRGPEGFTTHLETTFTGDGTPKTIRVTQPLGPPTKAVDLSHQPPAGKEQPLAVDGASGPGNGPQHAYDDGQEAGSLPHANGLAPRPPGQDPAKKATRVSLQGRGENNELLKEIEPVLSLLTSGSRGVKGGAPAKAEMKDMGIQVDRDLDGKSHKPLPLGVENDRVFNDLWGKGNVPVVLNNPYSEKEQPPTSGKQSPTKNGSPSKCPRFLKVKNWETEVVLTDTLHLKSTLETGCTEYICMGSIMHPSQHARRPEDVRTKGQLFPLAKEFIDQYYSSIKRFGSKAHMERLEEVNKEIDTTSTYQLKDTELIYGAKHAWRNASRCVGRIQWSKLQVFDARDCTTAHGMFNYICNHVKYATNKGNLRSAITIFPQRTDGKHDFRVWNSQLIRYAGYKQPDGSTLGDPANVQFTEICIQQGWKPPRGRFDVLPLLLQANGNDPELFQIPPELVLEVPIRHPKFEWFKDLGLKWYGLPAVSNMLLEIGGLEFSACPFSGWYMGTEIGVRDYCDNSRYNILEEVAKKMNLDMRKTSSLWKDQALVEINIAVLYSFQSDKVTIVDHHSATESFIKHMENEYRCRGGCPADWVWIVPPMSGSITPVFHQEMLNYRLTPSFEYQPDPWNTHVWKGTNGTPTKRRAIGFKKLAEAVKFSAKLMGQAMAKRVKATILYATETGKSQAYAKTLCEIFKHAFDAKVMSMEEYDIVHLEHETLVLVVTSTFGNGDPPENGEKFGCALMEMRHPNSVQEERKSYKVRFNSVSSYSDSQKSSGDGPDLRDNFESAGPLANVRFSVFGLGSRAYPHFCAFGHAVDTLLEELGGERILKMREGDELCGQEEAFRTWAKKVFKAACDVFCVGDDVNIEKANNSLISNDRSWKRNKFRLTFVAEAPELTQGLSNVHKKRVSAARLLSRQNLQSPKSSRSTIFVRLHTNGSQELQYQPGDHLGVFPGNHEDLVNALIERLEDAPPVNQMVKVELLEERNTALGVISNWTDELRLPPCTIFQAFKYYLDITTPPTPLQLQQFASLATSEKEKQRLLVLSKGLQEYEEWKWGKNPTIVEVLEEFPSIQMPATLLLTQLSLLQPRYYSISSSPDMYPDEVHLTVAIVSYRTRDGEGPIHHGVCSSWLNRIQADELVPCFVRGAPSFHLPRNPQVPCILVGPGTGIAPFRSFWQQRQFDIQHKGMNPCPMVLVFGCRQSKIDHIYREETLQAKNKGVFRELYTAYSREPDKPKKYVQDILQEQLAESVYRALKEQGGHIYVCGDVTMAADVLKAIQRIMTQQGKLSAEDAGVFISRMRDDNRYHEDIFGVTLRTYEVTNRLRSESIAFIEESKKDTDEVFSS
Description: Inhibition of human nNOS expressed in Escherichia coli using human oxyhemoglobin by hemoglobin (Hb) NO capture assay

[4] = mouse, microsomes
[5] = human, microsomes

SMILES	Ki (Nitric oxide synthase 3) [µM]	Ki [1] [µM]	Ki (Nitric oxide synthase 1 [2]) [µM]	Ki (Nitric oxide synthase 1 [3]) [µM]	t1/2 [4] [min]	t1/2 [5] [min]
Cc1cc(N)nc(CCc2cc(CCN)cc(F)c2F)c1.Cl.Cl	77.2	1.72	–	–	–	–
CN(C)CCc1cc(F)c(F)c(CCc2cccc(N)n2)c1	61.4	–	1.11	1.64	–	–
Cc1cc(N)nc(C#Cc2cc(CN(C)C)cc(F)c2F)c1.Cl.Cl	7.68	88.7	–	0.319	–	–
CCN(CC)CCc1cc(F)c(F)c(CCc2cc(C)cc(N)n2)c1.Cl.Cl	46.4	–	–	–	–	–
Cc1cc(N)nc(/C=C/c2cc(CCN(C)C)cc(F)c2F)c1	14.3	11.9	–	0.048	–	–
Cc1cc(N)nc(C#Cc2cc(CCN(C)C)cc(F)c2F)c1	18.7	48.8	–	0.328	–	–
Cc1cc(N)nc(CCc2cc(CCN3CCN(C)CC3)cc(F)c2F)c1	12.4	–	–	–	–	–
CN(C)CCc1cc(F)c(F)c(CCc2cc(C(F)(F)F)cc(N)n2)c1.Cl.Cl	68.3	–	–	–	–	–
Cc1cc(N)nc(CCc2cc(CC[C@H]3CCN3C)cc(F)c2F)c1.Cl.Cl	–	–	–	–	16	> 60
Cc1cc(N)nc(CCc2cc(CCN(C)C)cc(F)c2F)c1.Cl.Cl	–	–	–	–	29	> 60
